Here are results for 1 compound from US20220211858A1, “TUBULAR SUPRAMOLECULAR POLYMERS” (priority 2019, published 2022).

The test system of data set [1] is human glioblastoma U87 MG cells. In words: Antitumor efficacy study for systemic delivery, subcutaneous U87 MG tumor. The format is in vivo, athymic nude mice. The conditions noted are these: controls: free CPT 4.5 mg/kg i.p.; irinotecan 60 mg/kg i.p. The procedure:
A total of 2×10^6 human glioblastoma U87 MG cells were subcutaneously injected into the right shoulder of athymic nude mice (8-9 weeks old). The mice were used for the efficacy study after three to four weeks when the tumor had reached about 190-250 mm^3 in size. […]. Water insoluble free CPT was dissolved/suspended in a mixture of DMSO/ethanol/PEG-400/water (1:1:2:1). CPT (4.5 mg/kg) and irinotecan (60 mg/kg) were administered by intraperitoneal injection, while freshly prepared TT 1 solutions of various doses were administered intravenously by tail vein injection every 4 days for a total of three doses (days 1, 5, and 9). […]. Tumor volumes were measured and recorded every other day. The body weights were measured and recorded every day or every other day. The tumor volume was determined by measuring the tumor in two dimensions with calipers and using the formula “tumor volume=(length×width^2)/2”. Each animal was euthanized once the tumor volume reached the predetermined end point size of 2000 mm^3.

A further data set has as its system HT-29 cells. The conditions noted are these: SAPDs 10 mg/kg i.v. days 1, 5, 9, 13; irinotecan 100 mg/kg i.p. days 1, 8, 15. The text has this: Antitumor efficacy study of SAPDs at the same dose on a HT-29 tumor model. […] When the averaged tumor size reached 75-95 mm^3, mice were randomly divided into six groups. […] The tumor volumes and body weights were monitored and recorded every two or three days. The tumor volume was estimated by measuring the length and width with calipers and using the equation “tumor volume=(length×width^2)/2”. Mice were euthanized once the tumor volume reached 1000 mm^3.

Data set [2] relates to U87 MG human brain cancer cells. In words: cells. The following applies: U-87 MG, 48 h.
The conditions of data set [3]: in vivo; cited from earlier work.

As usually defined, the IC50 is the midpoint of a concentration-inhibition curve. Take `CCc1c2c(nc3ccc(OC(=O)N4CCC(N5CCCCC5)CC4)cc13)-c1cc3c(c(=O)n1C2)COC(=O)[C@]3(O)CC` [irinotecan, reference compound]: the median survival in data set [1] stood at 27 days; in the data set on HT-29 cells, 51 days. In data set [2], half-maximal inhibition (IC50) required 6.5 µM. For the same compound, the “reported MTD” value in data set [3] was 100 mg/kg.
